# Laboratory results published in US11046696B2, “Fused pyrimidine compound or salt thereof” (TAIHO PHARMACEUTICAL CO., LTD., priority 2016, dated 2021).
# Assay: Evaluation of stability in liver microsome
# Settings: mouse liver microsome, 1 μM, 37° C. for 30 minutes
row,Remaining (%),Structure (SMILES)
1,61,"COCc1ccc(NC(=O)c2c(-c3ccc(O)cc3)n(C3(C)CC3)c3ncnc(N)c23)cc1 [Example 148, 4-amino-6-(4-hydroxyphenyl)-N-(4-(methoxymethyl)phenyl)-7-(1-methylcyclopropyl)-7H-pyrrolo[2,3-d]pyrimidine-5-carboxamide]"
2,53,"COCc1ccc(NC(=O)c2c(C#Cc3cnc[nH]3)n(C3(C)CC3)c3ncnc(N)c23)cc1 [Example 191, 6-((1H-imidazol-5-yl)ethynyl)-4-amino-N-(4-(methoxymethyl)phenyl)-7-(1-methylcyclopropyl)-7H-pyrrolo[2,3-d]pyrimidine-5-carboxamide]"
3,85,"COCc1ccc(NC(=O)c2c(-c3ccc(CO)nc3)n(C3(C)CC3)c3ncnc(N)c23)cc1 [Example 179, 4-amino-6-(6-(hydroxymethyl)pyridin-3-yl)-N-(4-(methoxymethyl)phenyl)-7-(1-methylcyclopropyl)-7H-pyrrolo[2,3-d]pyrimidine-5-carboxamide]"
4,80,"COCc1ccc(NC(=O)c2c(-c3cn[nH]c3)n(C3(C)CC3)c3ncnc(N)c23)cc1 [Example 167, 4-amino-N-(4-(methoxymethyl)phenyl)-7-(1-methylcyclopropyl)-6-(1H-pyrazol-4-yl)-7H-pyrrolo[2,3-d]pyrimidine-5-carboxamide]"
5,60,"COCc1ccc(NC(=O)c2c(C#CCC3(O)CCC3)n(C3(C)CC3)c3ncnc(N)c23)cc1 [Example 103, 4-amino-6-(3-(1-hydroxycyclobutyl)prop-1-yn-1-yl)-N-(4-(methoxymethyl)phenyl)-7-(1-methylcyclopropyl)-7H-pyrrolo[2,3-d]pyrimidine-5-carboxamide]"
6,82,"COCc1ccc(NC(=O)c2c(C#Cc3cnc4[nH]ccc4c3)n(C3(C)CC3)c3ncnc(N)c23)cc1 [Example 128, 6-((1H-pyrrolo[2,3-b]pyridin-5-yl)ethynyl)-4-amino-N-(4-(methoxymethyl)phenyl)-7-(1-methylcyclopropyl)-7H-pyrrolo[2,3-d]pyrimidine-5-carboxamide]"
7,66,"COCc1ccc(NC(=O)c2cn(C3(CF)CC3)c3ncnc(N)c23)cc1 [Example 45, 4-amino-7-(1-(fluoromethyl)cyclopropyl)-N-(4-(methoxymethyl)phenyl)-7H-pyrrolo[2,3-d]pyrimidine-5-carboxamide]"
8,54,"COCc1ccc(NC(=O)c2cn(C(C)(C)C)c3ncnc(N)c23)cc1F [Example 30, 4-amino-7-(tert-butyl)-N-(3-fluoro-4-(methoxymethyl)phenyl)-7H-pyrrolo[2,3-d]pyrimidine-5-carboxamide]"
9,64,"COCc1ccc(NC(=O)c2c(C#Cc3ccc(N)nc3)n(C3(C)CC3)c3ncnc(N)c23)cc1 [Example 155, 4-amino-6-((6-aminopyridin-3-yl)ethynyl)-N-(4-(methoxymethyl)phenyl)-7-(1-methylcyclopropyl)-7H-pyrrolo[2,3-d]pyrimidine-5-carboxamide]"
10,78,"COCc1ccc(NC(=O)c2c(C#Cc3cnc4ccoc4c3)n(C3(C)CC3)c3ncnc(N)c23)cc1 [Example 159, 4-amino-6-(furo[3,2-b]pyridin-6-ylethynyl)-N-(4-(methoxymethyl)phenyl)-7-(1-methylcyclopropyl)-7H-pyrrolo[2,3-d]pyrimidine-5-carboxamide]"
11,59,"COCc1ccc(NC(=O)c2c(C#CCN3CCCC3)n(C3(C)CC3)c3ncnc(N)c23)cc1 [Example 88, 4-amino-N-[4-(methoxymethyl)phenyl]-7-(1-methylcyclopropyl)-6-(3-(pyrrolidin-1-yl)prop-1-yn-1-yl)-7H-pyrrolo[2,3-d]pyrimidine-5-carboxamide]"
12,79,"COCc1ccc(NC(=O)c2c(C#Cc3cnn(C(C)C)c3)n(C3(C)CC3)c3ncnc(N)c23)cc1 [Example 144, 4-amino-6-((1-isopropyl-1H-pyrazol-4-yl)ethynyl)-N-(4-(methoxymethyl)phenyl)-7-(1-methylcyclopropyl)-7H-pyrrolo[2,3-d]pyrimidine-5-carboxamide]"
13,81,"COCc1ccc(NC(=O)c2c(-c3cccnc3)n(C3(C)CC3)c3ncnc(N)c23)cc1 [Example 61, 4-amino-N-(4-(methoxymethyl)phenyl)-7-(1-methylcyclopropyl)-6-(pyridin-3-yl)-7H-pyrrolo[2,3-d]pyrimidine-5-carboxamide]"
14,55,"CCOc1c(C(=O)Nc2ccc(-c3ccco3)cc2)c2c(N)ncnc2n1C1(C)CC1 [Example 116, 4-amino-6-ethoxy-N-(4-(furan-2-yl)phenyl)-7-(1-methylcyclopropyl)-7H-pyrrolo[2,3-d]pyrimidine-5-carboxamide]"
15,52,"COCc1ccc(NC(=O)c2c(C#CCN3CCCCC3)n(C3(C)CC3)c3ncnc(N)c23)cc1 [Example 105, 4-amino-N-[4-(methoxymethyl)phenyl]-7-(1-methylcyclopropyl)-6-(3-(piperidin-1-yl)prop-1-yn-1-yl)-7H-pyrrolo[2,3-d]pyrimidine-5-carboxamide]"
16,56,"COCc1ccc(NC(=O)c2c(Br)n(C3(C)CC3)c3ncnc(N)c23)cc1 [Example 55, 4-amino-6-bromo-N-[4-(methoxymethyl)phenyl]-7-(1-methylcyclopropyl)-7H-pyrrolo[2,3-d]pyrimidine-5-carboxamide]"
17,58,"COCc1ccc(NC(=O)c2c(C#Cc3c(C)noc3C)n(C3(C)CC3)c3ncnc(N)c23)cc1 [Example 184, 4-amino-6-((3,5-dimethylisoxazol-4-yl)ethynyl)-N-(4-(methoxymethyl)phenyl)-7-(1-methylcyclopropyl)-7H-pyrrolo[2,3-d]pyrimidine-5-carboxamide]"
18,72,"COCc1ccc(NC(=O)c2c(C#Cc3ccc(Cl)nc3)n(C3(C)CC3)c3ncnc(N)c23)cc1 [Example 120, 4-amino-6-((6-chloropyridin-3-yl)ethynyl)-N-(4-(methoxymethyl)phenyl)-7-(1-methylcyclopropyl)-7H-pyrrolo[2,3-d]pyrimidine-5-carboxamide]"
19,79,"COCc1ccc(NC(=O)c2c(C#Cc3ccc(OC)nc3)n(C3(C)CC3)c3ncnc(N)c23)cc1 [Example 192, 4-amino-N-(4-(methoxymethyl)phenyl)-6-((6-methoxypyridin-3-yl)ethynyl)-7-(1-methylcyclopropyl)-7H-pyrrolo[2,3-d]pyrimidine-5-carboxamide]"
20,52,"COCCN(C)CC#Cc1c(C(=O)Nc2ccc(COC)cc2)c2c(N)ncnc2n1C1(C)CC1 [Example 197, 4-amino-6-(3-((2-methoxyethyl)(methyl)amino)prop-1-yn-1-yl)-N-(4-(methoxymethyl)phenyl)-7-(1-methylcyclopropyl)-7H-pyrrolo[2,3-d]pyrimidine-5-carboxamide]"
21,66,"COCc1ccc(NC(=O)c2c(C#CCC(C)(C)O)n(C3(C)CC3)c3ncnc(N)c23)cc1 [Example 86, 4-amino-6-(4-hydroxy-4-methylpent-1-yn-1-yl)-N-[4-(methoxymethyl)phenyl]-7-(1-methylcyclopropyl)-7H-pyrrolo[2,3-d]pyrimidine-5-carboxamide]"
22,76,"COCc1ccc(NC(=O)c2c(OCC(C)OC)n(C3(C)CC3)c3ncnc(N)c23)cc1 (stereo not drawn) [Example 100, 4-amino-N-(4-(methoxymethyl)phenyl)-6-(2-methoxypropoxy)-7-(1-methylcyclopropyl)-7H-pyrrolo[2,3-d]pyrimidine-5-carboxamide]"
23,77,"COCc1ccc(NC(=O)c2c(C#CCN3CCN(C)CC3)n(C3(C)CC3)c3ncnc(N)c23)cc1 [Example 132, 4-amino-N-(4-(methoxymethyl)phenyl)-7-(1-methylcyclopropyl)-6-(3-(4-methylpiperazin-1-yl)prop-1-yn-1-yl)-7H-pyrrolo[2,3-d]pyrimidine-5-carboxamide]"
24,53,"COCc1ccc(NC(=O)c2cn(C(C)(C)C(F)F)c3ncnc(N)c23)cc1 [Example 50, 4-amino-7-(1,1-difluoro-2-methylpropan-2-yl)-N-(4-(methoxymethyl)phenyl)-7H-pyrrolo[2,3-d]pyrimidine-5-carboxamide]"
25,62,"COCc1ccc(NC(=O)c2c(Cl)n(C3(C)CC3)c3ncnc(N)c23)cc1 [Example 56, 4-amino-6-chloro-N-[4-(methoxymethyl)phenyl]-7-(1-methylcyclopropyl)-7H-pyrrolo[2,3-d]pyrimidine-5-carboxamide]"
26,52,"COCc1ccc(NC(=O)c2c(OCC3CCCC3)n(C3(C)CC3)c3ncnc(N)c23)cc1 [Example 140, 4-amino-6-(cyclopentylmethoxy)-N-(4-(methoxymethyl)phenyl)-7-(1-methylcyclopropyl)-7H-pyrrolo[2,3-d] pyrimidine-5-carboxamide]"
27,69,"COCc1ccc(NC(=O)c2c(OC[C@H]3CCCO3)n(C3(C)CC3)c3ncnc(N)c23)cc1 [Example 89, (R)-4-amino-N-[4-(methoxymethyl)phenyl]-7-(1-methylcyclopropyl)-6-((tetrahydrofuran-2-yl)methoxy)-7H-pyrrolo[2,3-d]pyrimidine-5-carboxamide]"
28,68,"COCc1ccc(NC(=O)c2c(-c3ccc(NC(C)=O)nc3)n(C3(C)CC3)c3ncnc(N)c23)cc1 [Example 147, 6-(6-acetamidopyridin-3-yl)-4-amino-N-(4-(methoxymethyl)phenyl)-7-(1-methylcyclopropyl)-7H-pyrrolo[2,3-d]pyrimidine-5-carboxamide]"
29,90,"COCc1ccc(NC(=O)c2c(C#Cc3ccc(OC)cc3)n(C3(C)CC3)c3ncnc(N)c23)cc1 [Example 165, 4-amino-N-(4-(methoxymethyl)phenyl)-6-((4-methoxypheny)ethynyl)-7-(1-methylcyclopropyl)-7H-pyrrolo[2,3-d]pyrimidine-5-carboxamide]"

row,Structure (SMILES),Remaining (%)
1,"COCc1ccc(NC(=O)c2c(OCC(C)C)n(C3(C)CC3)c3ncnc(N)c23)cc1 [Example 99, 4-amino-6-isobutoxy-N-(4-(methoxymethyl)phenyl)-7-(1-methylcyclopropyl)-7H-pyrrolo[2,3-d]pyrimidine-5-carboxamide]",51
